# Reference: patent US10294275B2, “Site-selective functionalization of glycopeptide antibiotics” (Yale University, priority 2012, dated 2019)
# How the values were obtained:
# [1] = system: methicillin-susceptible S. aureus, ATCC 29213; assay: Minimum inhibitory concentration against MSSA; type: cell-based; conditions: Staphylococcus aureus, read-out: MIC, MSSA
# Excerpt: (§1) The chemistry described above enabled direct synthesis of eleven previously unknown analogs of 3. The minimum inhibitory concentrations (MICs) for the new analogs as antibacterial agents as determined.
# [2] = system: methicillin-resistant S. aureus, ATCC 43300; assay: Minimum inhibitory concentration against MRSA; type: cell-based; conditions: Staphylococcus aureus, read-out: MIC, MRSA
# Excerpt: as §1
# [3] = system: vancomycin-susceptible enterococci, ATCC 29212; assay: Minimum inhibitory concentration against VSE; type: cell-based; conditions: read-out: MIC, VSE
# Excerpt: as §1
# [4] = system: vancomycin-resistant enterococci (VanB), ATCC 51299; assay: Minimum inhibitory concentration against VRE (VanB); type: cell-based; conditions: Enterococcus, read-out: MIC, VRE (VanB)
# Excerpt: as §1
# [5] = system: vancomycin-resistant enterococci (VanA), MMX 486; assay: Minimum inhibitory concentration against VRE (VanA); type: cell-based; conditions: Enterococcus, VRE, read-out: MIC, VRE (VanA)
# Excerpt: as §1
# Staphylococcus aureus = conditions: cited from earlier work
smiles,measurement,setting,value
"CN[C@H](CC(C)C)C(=O)N[C@H]1C(=O)N[C@@H](CC(N)=O)C(=O)N[C@H]2C(=O)N[C@H]3C(=O)N[C@H](C(=O)N[C@H](C(=O)O)c4cc(O)cc(O)c4-c4cc3ccc4O)[C@H](O)c3ccc(c(Cl)c3)Oc3cc2cc(c3O[C@@H]2O[C@H](CO)[C@@H](O)[C@H](O)[C@H]2O[C@H]2C[C@](C)(N)[C@H](O)[C@H](C)O2)Oc2ccc(cc2Cl)[C@H]1O [Vancomycin, vancomycin, reference compound]",MIC,[1],0.5 µg/mL
same,MIC,[2],1 µg/mL
same,MIC,[3],2 µg/mL
same,MIC,[4],16 µg/mL
same,MIC,[5],> 64 µg/mL
same,in vitro MIC against Staphylococcus aureus,Staphylococcus aureus,0.25 to 10 µg/mL
